Assay results from patent publication US12083124B2 (Incyte Corporation, priority 2019, dated 2024).
Where two headings read alike, the source gives them in different places.

Legend:
[1] = target: wild-type un-phosphorylated FGFR1 (Homo sapiens, UniProt P11362); experiment: FGFR Enzymatic Assay (FRET peptide phosphorylation), FGFR1; settings: read-out: FGFR1; wild-type un-phosphorylated FGFR1; pre-incubated for 4 hours
[2] = target: wild-type un-phosphorylated FGFR3 (Homo sapiens, UniProt P22607); experiment: FGFR Enzymatic Assay (FRET peptide phosphorylation), FGFR3
[3] = target: wild-type un-phosphorylated FGFR2 (Homo sapiens, UniProt P21802); experiment: FGFR Enzymatic Assay (FRET peptide phosphorylation), FGFR2
[4] = target: wild-type un-phosphorylated FGFR4 (Homo sapiens, UniProt P22455); experiment: FGFR Enzymatic Assay (FRET peptide phosphorylation), FGFR4
Method: The inhibitor potency of the exemplified compounds was determined in an enzyme discontinuous assay that measures peptide phosphorylation using FRET measurements to detect product formation. Inhibitors were serially diluted in DMSO and a volume of 0.2 μL was transferred to the wells of a 384-well plate. […] Appropriate controls (enzyme blank and enzyme with no inhibitor) were included on the plate. […] The 10 μL/well reaction concentration of the peptide substrate was 500 nM whereas the ATP concentration was maintained near or below the ATP Km. The ATP Km values were pre-determined in a separate series of experiments. The reaction plate was incubated at 25° C. for 1 hr and the reactions were ended with the addition of 5 μL/well of quench solution (50 mM Tris, 150 mM NaCl, 0.5 mg/mL BSA, pH 7.8; 45 mM EDTA, 600 nM staurosporin, with Perkin Elmer Lance Reagents at 3.75 nM Eu-antibody PY20 and 180 nM APC-Streptavidin). The plate was allowed to equilibrate for ˜10 minutes at ambient temperature before scanning on a PheraStar plate reader (BMG Labtech) instrument.
Either GraphPad prism or XLfit was used to analyze the data. The IC50 values were derived by fitting the data to a four parameter logistic equation producing a sigmoidal dose-response curve with a variable Hill coefficient. Prism equation: Y=Bottom+(Top-Bottom)/(1+10^((Log IC50-X)*Hill slope)); XLfit equation: Y=(A+((B−A)/(1+((X/C)^D)))) where X is the logarithm of inhibitor concentration and Y is the response.
GraphPad prism3 was used to analyze the data. The IC50 values were derived by fitting the data to the equation for a sigmoidal dose-response with a variable slope. Y=Bottom+(Top-Bottom)/(1+10^((Log IC50-X)*Hill Slope)) where X is the logarithm of concentration and Y is the response.
The data in Table 1 was measured in wild-type un-phosphorylated FGFR1, FGFR2, FGFR3, and FGFR4 proteins.

[5] = read-out: FGFR4, wild-type un-phosphorylated FGFR4, pre-incubated for 4 hours

wild-type un-phosphorylated FGFR1, sequence (P11362 22-822): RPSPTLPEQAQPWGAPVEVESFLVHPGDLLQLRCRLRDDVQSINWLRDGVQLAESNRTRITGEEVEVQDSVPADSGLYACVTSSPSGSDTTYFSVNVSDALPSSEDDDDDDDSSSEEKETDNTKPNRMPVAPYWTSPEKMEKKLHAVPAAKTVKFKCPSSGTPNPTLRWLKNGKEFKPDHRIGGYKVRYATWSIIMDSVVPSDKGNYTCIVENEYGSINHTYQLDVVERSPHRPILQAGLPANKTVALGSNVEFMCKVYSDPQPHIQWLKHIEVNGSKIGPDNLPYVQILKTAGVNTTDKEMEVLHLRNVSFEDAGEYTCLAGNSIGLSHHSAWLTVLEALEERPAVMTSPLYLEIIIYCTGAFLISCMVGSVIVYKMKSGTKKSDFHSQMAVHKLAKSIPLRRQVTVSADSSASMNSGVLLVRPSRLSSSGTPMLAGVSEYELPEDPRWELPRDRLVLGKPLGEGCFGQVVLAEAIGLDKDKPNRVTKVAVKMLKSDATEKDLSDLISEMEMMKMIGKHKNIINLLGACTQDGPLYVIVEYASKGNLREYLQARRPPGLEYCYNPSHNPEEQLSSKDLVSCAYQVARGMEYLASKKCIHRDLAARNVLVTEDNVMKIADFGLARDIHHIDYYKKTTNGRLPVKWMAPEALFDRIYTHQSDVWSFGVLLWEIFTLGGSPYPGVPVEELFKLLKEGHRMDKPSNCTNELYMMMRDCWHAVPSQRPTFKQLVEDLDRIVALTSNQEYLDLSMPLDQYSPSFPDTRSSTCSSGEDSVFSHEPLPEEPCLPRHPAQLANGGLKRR
wild-type un-phosphorylated FGFR3, sequence (P22607 23-806): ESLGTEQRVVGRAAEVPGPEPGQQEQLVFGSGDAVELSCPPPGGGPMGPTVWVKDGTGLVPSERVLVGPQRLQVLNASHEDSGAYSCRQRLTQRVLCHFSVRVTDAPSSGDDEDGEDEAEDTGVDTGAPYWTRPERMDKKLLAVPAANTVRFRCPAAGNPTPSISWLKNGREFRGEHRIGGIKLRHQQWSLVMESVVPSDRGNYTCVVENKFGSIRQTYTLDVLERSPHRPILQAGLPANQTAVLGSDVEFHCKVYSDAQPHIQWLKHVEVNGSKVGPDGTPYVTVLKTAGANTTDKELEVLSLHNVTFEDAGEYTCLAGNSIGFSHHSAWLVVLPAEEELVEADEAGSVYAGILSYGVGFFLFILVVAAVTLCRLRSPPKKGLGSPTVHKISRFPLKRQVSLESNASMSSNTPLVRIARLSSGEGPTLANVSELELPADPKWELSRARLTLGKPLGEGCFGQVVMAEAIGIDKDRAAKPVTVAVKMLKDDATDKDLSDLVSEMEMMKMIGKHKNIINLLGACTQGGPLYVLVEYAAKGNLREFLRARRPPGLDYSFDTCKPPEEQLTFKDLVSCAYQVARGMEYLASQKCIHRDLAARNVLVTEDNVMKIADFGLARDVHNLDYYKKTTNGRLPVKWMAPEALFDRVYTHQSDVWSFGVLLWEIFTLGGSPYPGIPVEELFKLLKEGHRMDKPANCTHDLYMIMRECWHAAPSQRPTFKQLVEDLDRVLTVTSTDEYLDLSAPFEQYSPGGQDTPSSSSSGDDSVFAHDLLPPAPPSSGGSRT
wild-type un-phosphorylated FGFR2, sequence (P21802 22-821): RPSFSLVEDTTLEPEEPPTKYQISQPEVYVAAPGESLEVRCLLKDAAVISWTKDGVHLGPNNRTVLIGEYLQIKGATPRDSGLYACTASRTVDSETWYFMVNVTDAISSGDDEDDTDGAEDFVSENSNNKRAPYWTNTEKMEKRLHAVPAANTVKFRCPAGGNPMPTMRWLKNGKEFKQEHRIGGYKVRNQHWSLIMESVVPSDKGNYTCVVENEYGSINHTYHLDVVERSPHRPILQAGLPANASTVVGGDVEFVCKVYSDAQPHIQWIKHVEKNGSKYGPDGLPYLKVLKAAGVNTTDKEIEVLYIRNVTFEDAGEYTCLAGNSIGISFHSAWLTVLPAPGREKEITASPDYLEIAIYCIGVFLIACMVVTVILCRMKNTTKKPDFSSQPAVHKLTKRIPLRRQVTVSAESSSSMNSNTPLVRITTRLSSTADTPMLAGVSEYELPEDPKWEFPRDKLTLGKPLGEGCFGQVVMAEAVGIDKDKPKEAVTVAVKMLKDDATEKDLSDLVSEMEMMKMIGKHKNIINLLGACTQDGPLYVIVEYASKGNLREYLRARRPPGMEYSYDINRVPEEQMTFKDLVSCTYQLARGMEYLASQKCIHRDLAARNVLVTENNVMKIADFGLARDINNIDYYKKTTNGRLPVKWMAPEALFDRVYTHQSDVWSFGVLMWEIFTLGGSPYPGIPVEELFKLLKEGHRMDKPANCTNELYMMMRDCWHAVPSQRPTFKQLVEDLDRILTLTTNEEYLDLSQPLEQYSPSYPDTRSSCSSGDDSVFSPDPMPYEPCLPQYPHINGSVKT
wild-type un-phosphorylated FGFR4, sequence (P22455 22-802): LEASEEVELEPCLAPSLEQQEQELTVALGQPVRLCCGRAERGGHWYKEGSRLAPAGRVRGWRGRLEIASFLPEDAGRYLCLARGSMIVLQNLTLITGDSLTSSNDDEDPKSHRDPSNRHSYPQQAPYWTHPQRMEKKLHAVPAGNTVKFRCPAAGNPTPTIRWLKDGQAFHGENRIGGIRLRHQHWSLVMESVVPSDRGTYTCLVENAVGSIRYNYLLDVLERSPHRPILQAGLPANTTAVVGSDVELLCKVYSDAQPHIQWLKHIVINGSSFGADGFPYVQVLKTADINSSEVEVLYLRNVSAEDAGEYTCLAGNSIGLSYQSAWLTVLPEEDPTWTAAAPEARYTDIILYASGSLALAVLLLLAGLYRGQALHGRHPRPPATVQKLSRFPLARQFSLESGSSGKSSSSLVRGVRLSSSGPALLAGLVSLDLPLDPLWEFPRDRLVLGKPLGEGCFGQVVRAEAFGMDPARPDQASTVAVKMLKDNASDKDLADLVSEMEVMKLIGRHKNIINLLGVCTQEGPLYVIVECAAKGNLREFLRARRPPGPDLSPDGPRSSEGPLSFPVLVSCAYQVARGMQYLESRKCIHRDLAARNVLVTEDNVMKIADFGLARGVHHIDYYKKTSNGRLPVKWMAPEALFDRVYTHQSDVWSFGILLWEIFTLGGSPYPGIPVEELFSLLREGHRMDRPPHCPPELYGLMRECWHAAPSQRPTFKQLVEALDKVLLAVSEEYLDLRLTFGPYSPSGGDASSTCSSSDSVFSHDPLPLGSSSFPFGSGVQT

Row | Compound | IC50 [1] [nM] | IC50 [2] [nM] | IC50 [3] [nM] | IC50 [4, 5] [nM] | IC50 [4] [nM]
1 | COc1cc2[nH]nc(-c3ccc(N4CCN(CCO)CC4)nc3)c2nc1-c1cccc2c1CCC2C#N (stereo not shown) [Example 114, 4-(3-(6-(4-(2-Hydroxyethyl)piperazin-1-yl)pyridin-3-yl)-6-methoxy-1H-pyrazolo[4,3-b]pyridin-5-yl)-2,3-dihydro-1H-indene-1-carbonitrile] | 6 to 40 | < 6 | < 6 | 6 to 40 | 
2 | COc1cc2[nH]nc(-c3ccc(C4CCN(C(=O)CO)CC4)nc3)c2nc1-c1cccc2c1CCC2C#N (stereo not shown) [Example 115, 4-(3-(6-(1-(2-Hydroxyacetyl)piperidin-4-yl)pyridin-3-yl)-6-methoxy-1H-pyrazolo[4,3-b]pyridin-5-yl)-2,3-dihydro-1H-indene-1-carbonitrile] | 6 to 40 | < 6 | < 6 | 6 to 40 | 
3 | COc1cc2[nH]nc(-c3cnn(C4CN(C(=O)CO)C4)c3)c2nc1-c1cccc2c1CCC2 [Example 116, 1-(3-(4-(5-(2,3-Dihydro-1H-inden-4-yl)-6-methoxy-1H-pyrazolo[4,3-b]pyridin-3-yl)-1H-pyrazol-1-yl)azetidin-1-yl)-2-hydroxyethan-1-one] | 6 to 40 | < 6 | < 6 |  | 40 to 100
4 | COc1cc2[nH]nc(-c3cnn(C4CN(C(=O)CCN(C)C)C4)c3)c2nc1-c1cccc2c1CCC2 [Example 117, 1-(3-(4-(5-(2,3-Dihydro-1H-inden-4-yl)-6-methoxy-1H-pyrazolo[4,3-b]pyridin-3-yl)-1H-pyrazol-1-yl)azetidin-1-yl)-3-(dimethylamino)propan-1-one] | 6 to 40 | < 6 | < 6 |  | 40 to 100
5 | COc1cc2[nH]nc(-c3cnn(C4CN(C(=O)[C@H](C)N(C)C)C4)c3)c2nc1-c1cccc2c1CCC2 [Example 118, (S)-1-(3-(4-(5-(2,3-Dihydro-1H-inden-4-yl)-6-methoxy-1H-pyrazolo[4,3-b]pyridin-3-yl)-1H-pyrazol-1-yl)azetidin-1-yl)-2-(dimethylamino)propan-1-one] | 6 to 40 | < 6 | < 6 |  | 40 to 100
6 | COc1cc2[nH]nc(-c3cnn(C4CN(C(=O)[C@@H]5CCN5C)C4)c3)c2nc1-c1cccc2c1CCC2 [Example 119, (S)-(3-(4-(5-(2,3-Dihydro-1H-inden-4-yl)-6-methoxy-1H-pyrazolo[4,3-b]pyridin-3-yl)-1H-pyrazol-1-yl)azetidin-1-yl)(1-methylazetidin-2-yl)methanone] | 6 to 40 | < 6 | < 6 |  | 40 to 100
7 | COc1cc2[nH]nc(-c3cnn(C4CN(C(=O)CN5CCN(C)CC5)C4)c3)c2nc1-c1cccc2c1CCC2 [Example 120, 1-(3-(4-(5-(2,3-Dihydro-1H-inden-4-yl)-6-methoxy-1H-pyrazolo[4,3-b]pyridin-3-yl)-1H-pyrazol-1-yl)azetidin-1-yl)-2-(4-methylpiperazin-1-yl)ethan-1-one] | 6 to 40 | < 6 | < 6 |  | 40 to 100
8 | COc1cc2[nH]nc(-c3cnn(C4CN(C(=O)CN5CCC(O)CC5)C4)c3)c2nc1-c1cccc2c1CCC2 [Example 121, 1-(3-(4-(5-(2,3-Dihydro-1H-inden-4-yl)-6-methoxy-1H-pyrazolo[4,3-b]pyridin-3-yl)-1H-pyrazol-1-yl)azetidin-1-yl)-2-(4-hydroxypiperidin-1-yl)ethan-1-one] | 6 to 40 | < 6 | < 6 |  | 40 to 100
9 | COc1cc2[nH]nc(-c3cnn(C4CN(C(=O)[C@H]5CCN5C)C4)c3)c2nc1-c1cccc2c1CCC2 [Example 122, (R)-(3-(4-(5-(2,3-Dihydro-1H-inden-4-yl)-6-methoxy-1H-pyrazolo[4,3-b]pyridin-3-yl)-1H-pyrazol-1-yl)azetidin-1-yl)(1-methylazetidin-2-yl)methanone] | 6 to 40 | < 6 | < 6 |  | 40 to 100
10 | COc1cc2[nH]nc(-c3cnn(C4CN(C(=O)[C@@H](C)O)C4)c3)c2nc1-c1cccc2c1CCC2 [Example 123, (R)-1-(3-(4-(5-(2,3-Dihydro-1H-inden-4-yl)-6-methoxy-1H-pyrazolo[4,3-b]pyridin-3-yl)-1H-pyrazol-1-yl)azetidin-1-yl)-2-hydroxypropan-1-one] | 6 to 40 | < 6 | < 6 | 6 to 40 | 
11 | COc1cc2[nH]nc(-c3cnn(C4CN(C(=O)[C@H](C)O)C4)c3)c2nc1-c1cccc2c1CCC2 [Example 124, (S)-1-(3-(4-(5-(2,3-Dihydro-1H-inden-4-yl)-6-methoxy-1H-pyrazolo[4,3-b]pyridin-3-yl)-1H-pyrazol-1-yl)azetidin-1-yl)-2-hydroxypropan-1-one] | 6 to 40 | < 6 | < 6 |  | 40 to 100

Results, then the compound that gave them:

Row | IC50 [1] [nM] | IC50 [2] [nM] | IC50 [3] [nM] | IC50 [4, 5] [nM] | IC50 [4] [nM] | Compound
12 | 6 to 40 | < 6 | < 6 | 6 to 40 |  | COc1cc2[nH]nc(-c3cnn(C4CN(C(=O)[C@H]5C[C@H](O)C5)C4)c3)c2nc1-c1cccc2c1CCC2 [Example 125, (3-(4-(5-(2,3-Dihydro-1H-inden-4-yl)-6-methoxy-1H-pyrazolo[4,3-b]pyridin-3-yl)-1H-pyrazol-1-yl)azetidin-1-yl)((trans)-3-hydroxycyclobutyl)methanone]
13 | 6 to 40 | < 6 | < 6 | 6 to 40 |  | COc1cc2[nH]nc(-c3cnn(C4CN(C(=O)[C@H]5C[C@@H](O)C5)C4)c3)c2nc1-c1cccc2c1CCC2 [Example 126, (3-(4-(5-(2,3-Dihydro-1H-inden-4-yl)-6-methoxy-1H-pyrazolo[4,3-b]pyridin-3-yl)-1H-pyrazol-1-yl)azetidin-1-yl)((cis)-3-hydroxycyclobutyl)methanone]
14 | 6 to 40 | < 6 | < 6 |  | 40 to 100 | COc1cc2[nH]nc(-c3cnn(C4CN(C(=O)[C@H]5COCCN5C)C4)c3)c2nc1-c1cccc2c1CCC2 [Example 127, (R)-(3-(4-(5-(2,3-Dihydro-1H-inden-4-yl)-6-methoxy-1H-pyrazolo[4,3-b]pyridin-3-yl)-1H-pyrazol-1-yl)azetidin-1-yl)(4-methylmorpholin-3-yl)methanone]
15 | 6 to 40 | < 6 | < 6 |  | 40 to 100 | COc1cc2[nH]nc(-c3cnn(C4CN(C(=O)[C@@H]5COCCN5C)C4)c3)c2nc1-c1cccc2c1CCC2 [Example 128, (S)-(3-(4-(5-(2,3-Dihydro-1H-inden-4-yl)-6-methoxy-1H-pyrazolo[4,3-b]pyridin-3-yl)-1H-pyrazol-1-yl)azetidin-1-yl)(4-methylmorpholin-3-yl)methanone]
16 | 6 to 40 | < 6 | < 6 | 6 to 40 |  | COc1cc2[nH]nc(-c3cnn([C@H]4CCN(C(=O)CO)C4)c3)c2nc1-c1cccc2c1CCC2 [Example 129, (S)-1-(3-(4-(5-(2,3-Dihydro-1H-inden-4-yl)-6-methoxy-1H-pyrazolo[4,3-b]pyridin-3-yl)-1H-pyrazol-1-yl)pyrrolidin-1-yl)-2-hydroxyethan-1-one]
17 | 6 to 40 | < 6 | < 6 | 6 to 40 |  | COc1cc2[nH]nc(-c3cnn(C4CN(C(=O)[C@@H]5CCCO5)C4)c3)c2nc1-c1cccc2c1CCC2 [Example 130, (S)-(3-(4-(5-(2,3-Dihydro-1H-inden-4-yl)-6-methoxy-1H-pyrazolo[4,3-b]pyridin-3-yl)-1H-pyrazol-1-yl)azetidin-1-yl)(tetrahydrofuran-2-yl)methanone]
18 | 6 to 40 | < 6 | < 6 | 6 to 40 |  | COc1cc2[nH]nc(-c3cnn(C4CN(C(=O)[C@H]5CCOC5)C4)c3)c2nc1-c1cccc2c1CCC2 [Example 131, (S)-(3-(4-(5-(2,3-Dihydro-1H-inden-4-yl)-6-methoxy-1H-pyrazolo[4,3-b]pyridin-3-yl)-1H-pyrazol-1-yl)azetidin-1-yl)(tetrahydrofuran-3-yl)methanone]
19 | 6 to 40 | < 6 | < 6 |  | 40 to 100 | COc1cc2[nH]nc(-c3cnn([C@H]4CCN(C(=O)[C@@H](C)O)C4)c3)c2nc1-c1cccc2c1CCC2 [Example 132, (R)-1-((S)-3-(4-(5-(2,3-Dihydro-1H-inden-4-yl)-6-methoxy-1H-pyrazolo[4,3-b]pyridin-3-yl)-1H-pyrazol-1-yl)pyrrolidin-1-yl)-2-hydroxypropan-1-one]
20 | 6 to 40 | < 6 | < 6 |  | 40 to 100 | COc1cc2[nH]nc(-c3cnn([C@H]4CCN(C(=O)[C@H](C)O)C4)c3)c2nc1-c1cccc2c1CCC2 [Example 133, (S)-1-((S)-3-(4-(5-(2,3-Dihydro-1H-inden-4-yl)-6-methoxy-1H-pyrazolo[4,3-b]pyridin-3-yl)-1H-pyrazol-1-yl)pyrrolidin-1-yl)-2-hydroxypropan-1-one]
21 | 6 to 40 | < 6 | < 6 |  | 40 to 100 | COc1cc2[nH]nc(-c3cnn(C4CN(C(=O)C[C@@H](C)O)C4)c3)c2nc1-c1cccc2c1CCC2 [Example 134, (R)-1-(3-(4-(5-(2,3-Dihydro-1H-inden-4-yl)-6-methoxy-1H-pyrazolo[4,3-b]pyridin-3-yl)-1H-pyrazol-1-yl)azetidin-1-yl)-3-hydroxybutan-1-one]
22 | 6 to 40 | < 6 | < 6 | 6 to 40 |  | COc1cc2[nH]nc(-c3cnn(C4CN(C(=O)[C@H]5C[C@](C)(O)C5)C4)c3)c2nc1-c1cccc2c1CCC2 [Example 135, (3-(4-(5-(2,3-Dihydro-1H-inden-4-yl)-6-methoxy-1H-pyrazolo[4,3-b]pyridin-3-yl)-1H-pyrazol-1-yl)azetidin-1-yl)((1r,3r)-3-hydroxy-3-methylcyclobutyl)methanone]
